Laboratory results as given in ChEMBL document CHEMBL5257160, “Siderophore conjugates to combat antibiotic-resistant bacteria” (2023).
≈ marks a conversion by molar mass, not a printed value. Numbered stars: 1 amine (or outer) side, 2 acyl side, 3 side chain; on linkers, the order of the positions; unused ones are H or OH. Square brackets hold non-standard residues; d marks the D form. Peptide text beside a SMILES is read from it. X1 = Cn1c(=O)n([C@@H]2S[C@H]([C@H](O)[C@@H](N[*:1])C(=O)[*:2])[C@@H](O)[C@H]2O)cc/c1=N\C(N)=O; Orn(N5-OH,N5-Ac) = CC(=O)N(O)CCC[C@H](N)C(=O)O

Assays:
Type in all cases: functional
[1] = system: Acinetobacter baumannii; assay: Antibacterial activity against carbapenem - resistant Acinetobacter baumannii
[2] = system: Yersinia enterocolitica; assay: Antibacterial activity against Yersinia enterocolitica assessed as inhibition of bacterial growth in iron depleting media incubated for 20 hrs by CLSI protocol based assay
[3] = system: Streptococcus pneumoniae; assay: Antibacterial activity against Streptococcus pneumoniae assessed as inhibition of bacterial growth
[4] = system: Serratia sp.; assay: Antibacterial activity against Serratia sp. assessed as inhibition of bacterial growth; settings: Serratia sp. (in: enterobacteria)
[5] = system: Escherichia coli; assay: Antibacterial activity against Escherichia coli assessed as inhibition of bacterial growth
[6] = system: Klebsiella sp.; assay: Antibacterial activity against Klebsiella sp. assessed as inhibition of bacterial growth
[7] = system: Enterobacter sp.; assay: Antibacterial activity against Enterobacter sp. assessed as inhibition of bacterial growth
[8] = system: Enterobacteriaceae; assay: Antibacterial activity against Enterobacteriaceae assessed as inhibition of bacterial growth
[9] = system: Pseudomonas aeruginosa; assay: Antibacterial activity against Pseudomonas aeruginosa assessed as inhibition of bacterial growth
[10] = system: Proteus sp.; assay: Antibacterial activity against Proteus sp. assessed as inhibition of bacterial growth; settings: Proteus sp. (in: enterobacteria)
[11] = system: Stenotrophomonas maltophilia; assay: Antibacterial activity against Stenotrophomonas maltophilia assessed as inhibition of bacterial growth

For `C[C@@H]1S[C@@H]2[C@H](NC(=O)/C(=N/OC(C)(C)C(=O)O)c3csc(N)n3)C(=O)N2C(C(=O)[O-])=C1C[N+]12CCC(CNC(=O)c3ccc(O)c(O)c3Cl)(CC1)C2`, the MIC [1] was no more than 0.03 µg/mL.

`CC(=O)N(O)CCC[C@H](NC(=O)[C@H](CCCN(O)C(C)=O)NC(=O)[C@@H](N)CCCN(O)C(C)=O)C(=O)N[C@@H](CCC(=O)NCCNC(=O)CC[C@@H](NC(=O)c1ccc(N(C)Cc2cnc3nc(N)nc(N)c3n2)cc1)C(=O)O)C(=O)O` gave an MIC [2] of 0.0078 µg/mL (≈ 0.00683 µM) and an MIC [3] of 0.00196 µg/mL (≈ 0.00172 µM).

`CC(C)(O/N=C(\C(=O)N[C@@H]1C(=O)N2C(C(=O)[O-])=C(C[N+]3(CCNC(=O)c4ccc(O)c(O)c4Cl)CCCC3)CS[C@H]12)c1csc(N)n1)C(=O)O` [CEFIDEROCOL] showed an MIC90 [4] of 0.25 µg/mL (≈ 0.332 µM), an MIC90 [5] of 0.25 µg/mL (≈ 0.332 µM) and an MIC90 [6] of 0.25 µg/mL (≈ 0.332 µM). It also gave an MIC90 [7] of 0.25 µg/mL (≈ 0.332 µM).

`C[C@H]1[C@H](NC(=O)/C(=N\OCc2cc(=O)c(O)cn2O)c2csc(N)n2)C(=O)N1OS(=O)(=O)O` gave an MIC [8] of no more than 1 µg/mL and an MIC [9] of 2 µg/mL (≈ 3.96 µM).

Work on `CC(C)(O/N=C(\C(=O)N[C@@H]1C(=O)N(S(=O)(=O)O)C1CNC(=O)NCc1cc(=O)c(O)cn1O)c1csc(N)n1)C(=O)O` (some centres undefined) yielded an MIC90 [10] of 0.12 µg/mL (≈ 0.19 µM), an MIC90 [11] of 0.25 µg/mL (≈ 0.395 µM) and an MIC90 [7] of 8 µg/mL (≈ 12.6 µM).

With `CC(=O)N(O)CCC[C@H](NC(=O)[C@H](CCCN(O)C(C)=O)NC(=O)[C@@H](N)CCCN(O)C(C)=O)C(=O)N[C@@H](CO)C(=O)N[C@@H](C(=O)O)[C@@H](O)[C@H]1S[C@@H](n2cc/c(=N\C(N)=O)n(C)c2=O)[C@H](O)[C@@H]1O` (H-[Orn(N5-OH,N5-Ac)][Orn(N5-OH,N5-Ac)][Orn(N5-OH,N5-Ac)]S[X1]-OH) the MIC [3] was 0.01 µg/mL (≈ 0.0101 µM) and the MIC [5] was 0.005 µg/mL (≈ 0.00504 µM).
